Laboratory results: US4100278A, “Novel benzazepines” (Roussel Uclaf, priority 1976, dated 1978)
Structures can show the parent of a compound that is named as a salt.

Columns and labels:
[1] = Acute toxicity (LD50) in mice; conditions: mouse, in vivo, ip, intraperitoneal, mortality at 48 hours
Protocol: The LD50, dose which killed 50% of mice was determined by intraperitoneal administration of the test compounds and the mortality rate was determined of 48 hours.

[2] = tested on: effects of 5-hydroxytryptophane (5 HTP); assay: Potentialization of effects of 5 HTP in mice (trembling); format: in vivo; conditions: Mus musculus, test product i.p. one hour before 200 mg/kg 5 HTP i.p., observed every 15 minutes for an hour, read-out: MAD (minimum active dose)
From the text: The administration of 5-hydroxytryptophane (5 HTP) to mice pretreated with an antidepressive agent induces in the animals a particular behavoir, namely the appearance of trembling.

[3] = tested on: effects of nialamide (inhibitor of monoamine oxidase) - hyperactive motility; assay: Potentialization of effects of IMAO (nialamide), actimetric counting in mice; format: in vivo; parameters: key to the marks not given beside the values; conditions: 30 minutes after nialamide 100 mg/kg i.p., counts totaled every 30 minutes for 6 hours
L-dopa effects = assay: Potentialization of L-dopa effects in mice pretreated with iproniazide; format: in vivo; conditions: Mus musculus, ip; male mice, test product i.p. one hour before L-dopa 100 mg/kg i.p.; iproniazide 75 mg/kg i.p. 18 hours before; read-out: ED50 (dose at which 50% of the L-dopa effects were potentialized)
Protocol: The administration of L-dopa to mice pretreated with iproniazide 18 hours earlier produces a certain number of symptoms: muscular hypertonicity, hyperactivity, agitation, crying, aggressiveness, salivation and exophthalmia. The intensity of these effects is potentialized by administration of an antidepressive agent one hour before the L-dopa administration.
Male mice received intraperitoneally 75 mg/kg of iproniazide 18 hours before the start of the test and the test products in aqueous solution were administered intraperitoneally in increasing doses. The L-dopa was intraperitoneally administered at a dose of 100 mg/kg one hour later and the symptoms observed 15 and 30 minutes after the L-dopa administration were evaluated on a scale of 0 to 3 for each mouse and the values were totaled for each dose.

[4] = tested on: uptake of serotonine (5 HT), purified synaptosoma from whole brain; assay: Inhibition of uptake of serotonine in vitro (Test No. 1); format: biochemical, female rats; conditions: rat brain synaptosoma, 37° C, 5 minutes, C^14 - 5 HT 10^-7 M; read-out: 50% inhibiting concentration (IC 50) of uptake of C^14 - 5 HT (Test No. 1)
Protocol: The inhibition of uptake of serotonine (5 HT) was measured with purified synaptosoma prepared by starting from the whole brain of female rats 19-21 days old by the technique of Kannengiesser et al [Biochemical Pharmacology, Vol. 22 (1973), p. 73]. The test products at different concentrations were incubated with the preparation at 37° C for 5 minutes in the presence of C^14 - 5 HT at a concentration of 10^-7 M. The 50% inhibiting concentration (IC 50) of the products was graphically determined as the dose that inhibited by 50% the uptake of C^14 - 5 HT in the synaptosma.

[5] = tested on: uptake of serotonine (C^14 - 5 HT), brain synaptosoma; assay: Inhibition of uptake of serotonine in vivo (Test No. 2); conditions: Rattus norvegicus, ip; female rats 19 to 21 days old, 10 mg/kg i.p., brain removed after 30 minutes; read-out: % inhibition of uptake of C^14 - 5 HT with respect to the controls (Test No. 2)
Protocol: The test products were administered intraperitoneally to groups of female rats 19 to 21 days old at doses from 5 to 20 mg/kg. After 30 minutes, the brain was removed and the synaptosoma was prepared and was placed in an incubator in the presence of C^14 - 5 HT as indicated previously. […] The activity is expressed in % inhibition with respect to the controls at a dose of 10 mg/kg and the results are reported in Table V.

With `CNC1CCc2ccccc2NC1` (centres unmarked) [Example 6, di-[N-methyl-2,3,4,5-tetrahydro-[1H]-1-benzazepine-3-amine] fumarate] the LD50 at 48 h [1] was 250 mg/kg and the minimal effective dose [2] was 20 mg/kg.

In the case of `CNCC1CCc2ccccc2N(C)C1` (centres unmarked) [Example 3, Di-[N, 1-dimethyl-2,3,4,5-tetrahydro-[1H]-1-benzazepine-3-methanamine]-fumarate], the LD50 at 48 h [1] is reported as 250 mg/kg, the “Potentialization of nialamide for the dose” value (“Potentialization of nialamide” below) ([3]; 5 mg/kg i.p.) is reported as “++” and the ED50 (L-dopa effects) is reported as 20 mg/kg. For the same compound, the minimal effective dose [2] was 50 mg/kg, the IC50 [4] was 1300 nM and the inhibition at 10 mg/kg [5] was 40%.

For `NC1CCc2ccccc2NC1` (centres unmarked) [Example 4, di-[2,3,4,5-tetrahydro-[1H]-1-benzazepine-3-amine]-fumarate], the LD50 at 48 h [1] was 300 mg/kg, the “Potentialization of nialamide” value ([3]; 20 mg/kg i.p.) was “++” and the ED50 (L-dopa effects) was 50 mg/kg. It also gave a minimal effective dose [2] of 50 mg/kg.

In the case of `CNCC1CCc2ccccc2NC1.Cl.Cl` (centres unmarked) [Example 2, N-methyl-2,3,4,5-tetrahydro-[1H]-1-benzazepine-3-methanamine dihydrochloride], the LD50 at 48 h [1] is reported as 250 mg/kg, the “Potentialization of nialamide” value ([3]; 5 mg/kg i.p.) is reported as “+++” and the minimal effective dose [2] is reported as 10 mg/kg. The IC50 [4] was 1300 nM and the inhibition at 10 mg/kg [5] was 58%.

With `NCC1CCc2ccccc2NC1.O=C(O)/C=C/C(=O)O` (centres unmarked) [Example 1, 2,3,4,5-tetrahydro-[1H]-1-benzazepine-3-methanamine fumarate] the LD50 at 48 h [1] was 300 mg/kg, the “Potentialization of nialamide” value ([3]; 1 mg/kg i.p.) was “++” and the ED50 (L-dopa effects) was 10 mg/kg. The minimal effective dose [2] was 50 mg/kg.

Work on `CNC1CCc2ccccc2N(C)C1` (centres unmarked) [Example 5, di-[N,1-dimethyl-2,3,4,5-tetrahydro-[1H]-1-benzazepine-3-amine]-fumarate] yielded an LD50 at 48 h [1] of 150 mg/kg and a minimal effective dose [2] of 50 mg/kg.
